Reference: PubChem BioAssay (NCI)
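Each compound was tested at five concentrations against cells in 96-well plates for 48 hours. TGI: total growth inhibition.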

Legend:
Test in all cases: DTP human tumour cell line panel, 48 h
786-0 renal = system: 786-0 renal
A498 renal = system: A498 renal
A549 NSCLC = system: A549 NSCLC
ACHN renal = system: ACHN renal
BT-549 breast = system: BT-549 breast
CAKI-1 renal = system: CAKI-1 renal
CCRF-CEM leukemia = system: CCRF-CEM leukemia
COLO 205 colon = system: COLO 205 colon
DU-145 prostate = system: DU-145 prostate
EKVX NSCLC = system: EKVX NSCLC
HCC-2998 colon = system: HCC-2998 colon
HCT-116 colon = system: HCT-116 colon
HCT-15 colon = system: HCT-15 colon
HL-60(TB) leukemia = system: HL-60(TB) leukemia
HOP-62 NSCLC = system: HOP-62 NSCLC
HOP-92 NSCLC = system: HOP-92 NSCLC
HS 578T breast = system: HS 578T breast
HT29 colon = system: HT29 colon
IGROV1 ovarian = system: IGROV1 ovarian
K-562 leukemia = system: K-562 leukemia
KM12 colon = system: KM12 colon
LOX IMVI melanoma = system: LOX IMVI melanoma
M14 melanoma = system: M14 melanoma
MALME-3M melanoma = system: MALME-3M melanoma
MCF7 breast = system: MCF7 breast
MDA-MB-231 breast = system: MDA-MB-231 breast
MDA-MB-435 = system: MDA-MB-435
MOLT-4 leukemia = system: MOLT-4 leukemia
NCI-H226 lung = system: NCI-H226 lung
NCI-H23 lung = system: NCI-H23 lung
NCI-H460 lung = system: NCI-H460 lung
NCI-H522 lung = system: NCI-H522 lung
NCI/ADR-RES ovarian = system: NCI/ADR-RES ovarian
OVCAR-3 ovarian = system: OVCAR-3 ovarian
OVCAR-4 ovarian = system: OVCAR-4 ovarian
OVCAR-5 ovarian = system: OVCAR-5 ovarian
OVCAR-8 ovarian = system: OVCAR-8 ovarian
PC-3 prostate = system: PC-3 prostate
RPMI-8226 leukemia = system: RPMI-8226 leukemia
RXF 393 renal = system: RXF 393 renal
SF-268 CNS = system: SF-268 CNS
SF-295 CNS = system: SF-295 CNS
SF-539 CNS = system: SF-539 CNS
SK-MEL-2 melanoma = system: SK-MEL-2 melanoma
SK-MEL-28 melanoma = system: SK-MEL-28 melanoma
SK-MEL-5 melanoma = system: SK-MEL-5 melanoma
SK-OV-3 ovarian = system: SK-OV-3 ovarian
SN12C renal = system: SN12C renal
SNB-19 CNS = system: SNB-19 CNS
SW-620 colon = system: SW-620 colon
T-47D breast = system: T-47D breast
TK-10 renal = system: TK-10 renal
U251 CNS = system: U251 CNS
UACC-257 melanoma = system: UACC-257 melanoma
UACC-62 melanoma = system: UACC-62 melanoma
UO-31 renal = system: UO-31 renal

`COc1ccc(C2=Nn3c(nnc(Cc4ccc(Cl)cc4)c3=O)SC2)cc1` was tested, and the TGI (786-0 renal) was > 100 µM, the TGI (A498 renal) was > 100 µM and the TGI (A549 NSCLC) was > 100 µM. The TGI (ACHN renal) was > 100 µM, the TGI (BT-549 breast) was > 100 µM and the TGI (CAKI-1 renal) was > 100 µM. For the same molecule, the TGI (CCRF-CEM leukemia) was > 100 µM, the TGI (COLO 205 colon) was > 100 µM and the TGI (DU-145 prostate) was > 100 µM. For the same molecule, the TGI (EKVX NSCLC) was > 100 µM, the TGI (HCC-2998 colon) was > 100 µM and the TGI (HCT-116 colon) was > 100 µM. The TGI (HCT-15 colon) was > 100 µM, the TGI (HL-60(TB) leukemia) was > 100 µM and the TGI (HOP-62 NSCLC) was > 100 µM. The TGI (HOP-92 NSCLC) was > 100 µM, the TGI (HS 578T breast) was > 100 µM and the TGI (HT29 colon) was > 100 µM. The TGI (IGROV1 ovarian) was > 100 µM, the TGI (K-562 leukemia) was > 100 µM and the TGI (KM12 colon) was > 100 µM. The TGI (LOX IMVI melanoma) was > 100 µM, the TGI (M14 melanoma) was 91 µM and the TGI (MALME-3M melanoma) was > 100 µM. For the same molecule, the TGI (MCF7 breast) was > 100 µM, the TGI (MDA-MB-231 breast) was > 100 µM and the TGI (MDA-MB-435) was 33.4 µM. For the same molecule, the TGI (MOLT-4 leukemia) was > 100 µM, the TGI (NCI-H226 lung) was > 100 µM and the TGI (NCI-H23 lung) was > 100 µM. For the same molecule, the TGI (NCI-H460 lung) was > 100 µM, the TGI (NCI-H522 lung) was > 100 µM and the TGI (NCI/ADR-RES ovarian) was 53.7 µM. For the same molecule, the TGI (OVCAR-3 ovarian) was 92.2 µM, the TGI (OVCAR-4 ovarian) was > 100 µM and the TGI (OVCAR-5 ovarian) was > 100 µM. The TGI (OVCAR-8 ovarian) was > 100 µM, the TGI (PC-3 prostate) was > 100 µM and the TGI (RPMI-8226 leukemia) was > 100 µM. The TGI (RXF 393 renal) was > 100 µM, the TGI (SF-268 CNS) was > 100 µM and the TGI (SF-295 CNS) was > 100 µM. For the same molecule, the TGI (SF-539 CNS) was > 100 µM, the TGI (SK-MEL-2 melanoma) was > 100 µM and the TGI (SK-MEL-28 melanoma) was > 100 µM. For the same molecule, the TGI (SK-MEL-5 melanoma) was > 100 µM, the TGI (SK-OV-3 ovarian) was > 100 µM and the TGI (SN12C renal) was > 100 µM. The TGI (SNB-19 CNS) was > 100 µM, the TGI (SW-620 colon) was > 100 µM and the TGI (T-47D breast) was > 100 µM. The TGI (TK-10 renal) was > 100 µM, the TGI (U251 CNS) was > 100 µM and the TGI (UACC-257 melanoma) was > 100 µM. The TGI (UACC-62 melanoma) was > 100 µM and the TGI (UO-31 renal) was > 100 µM.
